Patent US11739098B2 (BRISTOL-MYERS SQUIBB COMPANY, priority 2017, dated 2023)

Legend:
Format in all cases: cell-based
human TLR9 = biological target: T1, human TLR9 (Homo sapiens, UniProt Q9NR96); experiment: TLR9 inhibition reporter assay (HEK-Blue cells, SEAP reporter, ODN2006 stimulation); details: HEK-Blue cells overexpressing human TLR9, SEAP reporter, ODN2006 5 nM
T1 construct: host or cells: HEK-Blue cells (HEK293-derived reporter line)
T1 sequence (Q9NR96 26-1032): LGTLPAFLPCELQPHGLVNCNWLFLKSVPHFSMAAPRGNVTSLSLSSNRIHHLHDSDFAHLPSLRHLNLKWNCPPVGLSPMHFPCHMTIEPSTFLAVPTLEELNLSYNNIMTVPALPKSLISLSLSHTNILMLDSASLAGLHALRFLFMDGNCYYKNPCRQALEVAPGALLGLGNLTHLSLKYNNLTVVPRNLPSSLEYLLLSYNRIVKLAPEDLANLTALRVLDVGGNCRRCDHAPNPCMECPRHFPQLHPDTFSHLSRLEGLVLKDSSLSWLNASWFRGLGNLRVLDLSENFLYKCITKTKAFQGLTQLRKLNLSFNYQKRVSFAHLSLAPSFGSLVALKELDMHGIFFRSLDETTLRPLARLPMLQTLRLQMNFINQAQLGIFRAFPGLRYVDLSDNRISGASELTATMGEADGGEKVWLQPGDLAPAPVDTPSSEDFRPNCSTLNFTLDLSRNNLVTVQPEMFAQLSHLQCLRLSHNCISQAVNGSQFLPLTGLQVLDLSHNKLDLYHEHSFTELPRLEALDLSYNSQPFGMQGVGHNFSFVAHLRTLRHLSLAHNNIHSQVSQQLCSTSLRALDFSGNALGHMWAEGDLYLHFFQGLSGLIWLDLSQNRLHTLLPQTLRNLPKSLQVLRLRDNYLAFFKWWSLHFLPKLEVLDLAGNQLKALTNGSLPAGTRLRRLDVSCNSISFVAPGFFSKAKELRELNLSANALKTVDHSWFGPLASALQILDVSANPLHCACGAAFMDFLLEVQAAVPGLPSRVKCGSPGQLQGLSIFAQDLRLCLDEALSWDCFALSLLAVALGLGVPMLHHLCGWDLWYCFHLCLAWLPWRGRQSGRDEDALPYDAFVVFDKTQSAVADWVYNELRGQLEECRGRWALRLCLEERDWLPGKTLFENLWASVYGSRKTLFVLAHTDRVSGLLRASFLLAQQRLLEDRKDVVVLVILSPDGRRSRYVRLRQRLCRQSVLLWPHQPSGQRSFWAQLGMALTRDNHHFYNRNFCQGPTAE
Procedure: (§1) TLR7/8/9 Inhibition Reporter Assays
(§2) HEK-Blue™-cells (Invivogen) overexpressing human TLR7, TLR8 or TLR9 receptors were used for screening inhibitors of these receptors using an inducible SEAP (secreted embryonic alkaline phosphatase) reporter gene under the control of the IFN-β minimal promoter fused to five NF-κB and AP-1-binding sites. Briefly, cells are seeded into Greiner 384 well plates (15000 cells per well for TLR7, 20,000 for TLR8 and 25,000 for TLR9) and then treated with test compounds in DMSO to yield a final dose response concentration range of 0.05 nM-50 μM. After a 30 minute compound pre-treatment at room temperature, the cells are then stimulated with a TLR7 ligand (gardiquimod at a final concentration of 7.5 μM), TLR8 ligand (R848 at a final concentration of 15.9 μM) or TLR9 ligand (ODN2006 at a final concentration of 5 nM) to activate NF-κB and AP-1 which induce the production of SLAP After a 22 hour incubation at […], SLAP levels are determined with the addition of HLK-Blue™ Detection reagent (Invivogen), a cell culture medium that allows for detection of SLAP, according to manufacturer's specifications. The percent inhibition is determined as the […] in the HEK-Blue signal present in wells treated with agonist plus DMSO alone compared to wells treated with a known inhibitor.

human TLR7 = biological target: T2, human TLR7 (Homo sapiens, UniProt Q9NYK1); experiment: TLR7 inhibition reporter assay (HEK-Blue cells, SEAP reporter, gardiquimod stimulation); details: HEK-Blue cells overexpressing human TLR7, SEAP reporter, gardiquimod 7.5 μM
T2 construct: host or cells: HEK-Blue cells (HEK293-derived reporter line)
T2 sequence (Q9NYK1 27-1049): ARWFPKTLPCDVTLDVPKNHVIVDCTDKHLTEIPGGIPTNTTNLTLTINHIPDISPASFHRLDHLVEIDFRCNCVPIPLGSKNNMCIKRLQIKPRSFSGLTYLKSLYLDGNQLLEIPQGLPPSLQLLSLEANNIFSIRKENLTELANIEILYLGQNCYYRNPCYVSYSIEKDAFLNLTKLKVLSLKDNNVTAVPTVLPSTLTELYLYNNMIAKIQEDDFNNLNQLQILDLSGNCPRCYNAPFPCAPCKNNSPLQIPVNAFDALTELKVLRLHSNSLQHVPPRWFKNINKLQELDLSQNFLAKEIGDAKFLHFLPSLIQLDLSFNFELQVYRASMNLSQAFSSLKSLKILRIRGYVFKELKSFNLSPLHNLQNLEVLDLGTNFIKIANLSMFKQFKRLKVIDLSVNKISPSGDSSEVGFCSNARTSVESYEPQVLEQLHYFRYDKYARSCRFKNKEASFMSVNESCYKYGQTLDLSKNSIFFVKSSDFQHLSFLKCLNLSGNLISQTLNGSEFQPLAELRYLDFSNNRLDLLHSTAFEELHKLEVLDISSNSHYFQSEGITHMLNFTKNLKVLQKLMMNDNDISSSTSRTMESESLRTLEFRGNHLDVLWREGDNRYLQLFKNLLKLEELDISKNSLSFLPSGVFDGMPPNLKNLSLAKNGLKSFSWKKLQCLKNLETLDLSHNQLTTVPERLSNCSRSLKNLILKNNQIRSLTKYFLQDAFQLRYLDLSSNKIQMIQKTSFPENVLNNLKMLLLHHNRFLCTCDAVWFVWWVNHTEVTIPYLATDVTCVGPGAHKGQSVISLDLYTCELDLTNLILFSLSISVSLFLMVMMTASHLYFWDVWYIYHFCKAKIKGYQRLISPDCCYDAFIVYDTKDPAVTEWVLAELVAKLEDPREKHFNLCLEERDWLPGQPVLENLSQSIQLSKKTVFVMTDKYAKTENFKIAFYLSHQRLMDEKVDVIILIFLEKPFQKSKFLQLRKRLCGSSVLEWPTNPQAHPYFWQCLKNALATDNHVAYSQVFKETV
Procedure: as §1, §2

human TLR8 = biological target: T3, human TLR8 (Homo sapiens, UniProt Q9NR97); experiment: TLR8 inhibition reporter assay (HEK-Blue cells, SEAP reporter, R848 stimulation); details: HEK-Blue cells overexpressing human TLR8, SEAP reporter, R848 15.9 μM
T3 construct: host or cells: HEK-Blue cells (HEK293-derived reporter line)
T3 sequence (Q9NR97 27-1041): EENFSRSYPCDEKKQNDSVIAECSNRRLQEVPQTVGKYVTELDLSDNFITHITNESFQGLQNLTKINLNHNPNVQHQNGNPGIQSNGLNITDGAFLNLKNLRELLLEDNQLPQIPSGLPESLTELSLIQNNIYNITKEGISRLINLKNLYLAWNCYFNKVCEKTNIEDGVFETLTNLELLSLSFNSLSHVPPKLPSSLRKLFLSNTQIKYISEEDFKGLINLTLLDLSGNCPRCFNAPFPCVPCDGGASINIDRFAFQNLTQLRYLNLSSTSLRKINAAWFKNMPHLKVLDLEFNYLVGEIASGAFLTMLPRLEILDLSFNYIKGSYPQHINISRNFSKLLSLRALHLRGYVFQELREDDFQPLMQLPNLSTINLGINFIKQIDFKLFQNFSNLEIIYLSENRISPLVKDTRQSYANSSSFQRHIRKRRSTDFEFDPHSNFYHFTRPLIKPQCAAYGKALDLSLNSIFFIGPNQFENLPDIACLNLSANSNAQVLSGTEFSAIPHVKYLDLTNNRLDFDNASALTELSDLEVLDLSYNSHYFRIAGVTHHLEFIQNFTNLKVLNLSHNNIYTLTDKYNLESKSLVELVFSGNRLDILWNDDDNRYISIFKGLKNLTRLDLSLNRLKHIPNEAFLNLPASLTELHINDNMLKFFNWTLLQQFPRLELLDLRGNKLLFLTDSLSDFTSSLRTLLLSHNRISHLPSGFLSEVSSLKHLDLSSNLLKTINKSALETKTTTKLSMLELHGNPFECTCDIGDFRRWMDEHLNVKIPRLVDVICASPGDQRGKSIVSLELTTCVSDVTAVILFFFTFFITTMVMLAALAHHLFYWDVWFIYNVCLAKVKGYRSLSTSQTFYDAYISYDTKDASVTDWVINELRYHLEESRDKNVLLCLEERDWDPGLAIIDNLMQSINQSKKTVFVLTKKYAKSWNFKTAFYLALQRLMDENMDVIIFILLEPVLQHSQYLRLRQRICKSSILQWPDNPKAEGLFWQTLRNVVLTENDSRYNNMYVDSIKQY
Procedure: as §1, §2

IC50 (human TLR9) [nM] | IC50 (human TLR7) [nM] | IC50 (human TLR8) [nM] | SMILES
< 100 | 1000 to 50000 | 1000 to 50000 | Cc1c(-c2nccc3[nH]cnc23)[nH]c2ccc(C3CCN(C4CCN(C(C)C)CC4)CC3)cc12 [Example 805, 4-(5-(1′-isopropyl-[1,4′-bipiperidin]-4-yl)-3-methyl-1H-indol-2-yl)-1H-imidazo[4,5-c]pyridine]
100 to 1000 | < 100 | < 100 | CC(C)c1c(-c2ccnc3[nH]ncc23)[nH]c2ccc(C3CCN(C(=O)C4CCCNC4)CC3)cc12 (stereo not drawn) [Example 636, (4-(3-isopropyl-2-(1H-pyrazolo[3,4-b]pyridin-4-yl)-1H-indol-5-yl)piperidin-1-yl)(piperidin-3-yl)methanone]
100 to 1000 | < 100 | < 100 | CCc1c(-c2c(C)cnc3[nH]ccc23)[nH]c2ccc(C3CCNCC3)cc12 [Example 246, 4-(3-ethyl-5-(piperidin-4-yl)-1H-indol-2-yl)-5-methyl-1H-pyrrolo[2,3-b]pyridine]
100 to 1000 | < 100 | 100 to 1000 | CNCC(=O)N1CCC(c2ccc3[nH]c(-c4cc(F)c5nccn5c4)c(C(C)C)c3c2)CC1 [Example 547, 1-(4-(2-(8-fluoroimidazo[1,2-a]pyridin-6-yl)-3-isopropyl-1H-indol-5-yl)piperidin-1-yl)-2-(methylamino)ethan-1-one]
1000 to 50000 | 100 to 1000 | < 100 | CCc1c(-c2ccnc3[nH]ncc23)[nH]c2ccc(C3CCN(C(=O)CN)CC3)cc12 [Example 461, 2-amino-1-(4-(3-ethyl-2-(1H-pyrazolo[3,4-b]pyridin-4-yl)-1H-indol-5-yl)piperidin-1-yl)ethan-1-one]
1000 to 50000 | 100 to 1000 | < 100 | Cc1c(-c2[nH]c3ccc(C4CCNCC4)cc3c2C(C)C)ccc2nnnn12 [Example 72, 6-(3-isopropyl-5-(piperidin-4-yl)-1H-indol-2-yl)-5-methyltetrazolo[1,5-a]pyridine]
100 to 1000 | < 100 | < 100 | Cc1ncc(CN2CCC(c3ccc4[nH]c(-c5ccnc6[nH]ncc56)c(C(C)C)c4c3)CC2)[nH]1 [Example 869, 4-(3-isopropyl-5-(1-((2-methyl-1H-imidazol-5-yl)methyl)piperidin-4-yl)-1H-indol-2-yl)-1H-pyrazolo[3,4-b]pyridine]
100 to 1000 | < 100 | 100 to 1000 | CC(C)c1c(-c2ccn3cnnc3c2)[nH]c2ccc(C3CCNCC3)cc12 [Example 83, 7-(3-isopropyl-5-(piperidin-4-yl)-1H-indol-2-yl)-[1,2,4]triazolo[4,3-a]pyridine]
100 to 1000 | 100 to 1000 | 100 to 1000 | COc1cc(-c2[nH]c3ccc(C4CCNCC4)cc3c2C(C)C)cc2nccn12 [Example 163, 7-(3-isopropyl-5-(piperidin-4-yl)-1H-indol-2-yl)-5-methoxyimidazo[1,2-a]pyridine]
1000 to 50000 | < 100 | < 100 | Cc1nnn2ccc(-c3[nH]c4ccc(C5CCN(CCS(C)(=O)=O)CC5)cc4c3C(C)C)cc12 [Example 793, 5-(3-isopropyl-5-(1-(2-(methylsulfonyl)ethyl)piperidin-4-yl)-1H-indol-2-yl)-3-methyl-[1,2,3]triazolo[1,5-a]pyridine]
1000 to 50000 | < 100 | < 100 | CC(C)c1c(-c2ccnc3[nH]ncc23)[nH]c2ccc(C3CCN(Cc4csc(N)n4)CC3)cc12 [Example 925, 4-((4-(3-isopropyl-2-(1H-pyrazolo[3,4-b]pyridin-4-yl)-1H-indol-5-yl)piperidin-1-yl)methyl)thiazol-2-amine]
< 100 | 100 to 1000 | 100 to 1000 | Cc1cc(-c2[nH]c3ccc(C4CCN(C(CO)CO)CC4)cc3c2C(C)C)cc2nccn12 [Example 755, 2-(4-(3-isopropyl-2-(5-methylimidazo[1,2-a]pyridin-7-yl)-1H-indol-5-yl)piperidin-1-yl)propane-1,3-diol]
1000 to 50000 | < 100 | < 100 | CC(C)c1c(-c2ccnc3[nH]ncc23)[nH]c2ccc(C3CCN(Cc4cnc(N)s4)CC3)cc12 [Example 926, 5-((4-(3-isopropyl-2-(1H-pyrazolo[3,4-b]pyridin-4-yl)-1H-indol-5-yl)piperidin-1-yl)methyl)thiazol-2-amine]
